Test results from patent publication US20090030072A1, “PHARMACEUTICAL COMBINATION OF OPIOID AND PRO[…]” (SUCAMPO AG, priority 2007, published 2009).

System: oxycodone-induced constipation in mice
Experiment: Graphite marker propulsion in the intestine, oxycodone-induced constipation in mice
Type: in vivo, Male Crlj: CD1 (ICR) mice
Details: 150 minutes after graphite marker
Description: Male Crlj: CD1 (ICR) mice were given oral administration of 0.1 mL of graphite maker (INK-30 containing 1% tragacanth gum). Immediately after administration of the graphite marker, the animals were treated orally with oxycodone at 5 mg/kg. The dosing volume of oxycodone was set at 5 mL/kg; the animals of the normal group were given the same volume of 0.5% CMC—Na. Immediately after administration of oxycodone or 0.5% CMC—Na, the animal was treated with Compound 1. The dosing volume of the Compound 1 was set at 5 mL/kg; the animals of the normal and control groups were given the same volume of water for injection. The animals were euthanized by cervical dislocation 150 minutes after administration of graphite marker, and the abdomen was cut open. The distance from the stomach to the cecum, and moving distance of the graphite marker in the intestine were measured. Propulsion rate was calculated by the following formula.
Propulsion rate (%)=(Moving distance of graphite marker/Distance from the stomach to the cecum)×100

Row | Structure (SMILES) | The graphite marker propulsion rate Mean ± S.E. (control group: oxycodone 5 mg/kg oral alone, n=15, p < 0.01 compared to normal group (99.8 ± 0.2)) [%] | The graphite marker propulsion rate Mean ± S.E. (control group: oxycodone 5 mg/kg oral alone, n=15, p < 0.01 compared to normal group (99.8 ± 0.2), listed as Oxycodone) [%] | The graphite marker propulsion rate Mean ± S.E. (Compound 1 100 μg/kg combined with oxycodone 5 mg/kg oral, n=15, p < 0.05 compared to control group) [%]
1 | COc1ccc2c3c1O[C@H]1C(=O)CC[C@@]4(O)[C@@H](C2)N(C)CC[C@]314 [oxycodone] | 62.3±5.6 | 62.3 ± 5.6 | 
2 | CCCCC(F)(F)C(=O)CCC1C(O)CC(=O)C1CCCCCCC(=O)O (stereo not drawn) [Compound 1, 13,14-dihydro-15-keto-16,16-difluoro-PGE1] |  |  | 80.5±5.5
